In patent US20070213338A1, “Triazolo-Pyridazine Compounds and Derivatives Thereof Useful in the Treatment of Neuropathic Pain” (priority 2003, published 2007):

Test system: nerve injury-induced tactile allodynia
Assay: Spinal Nerve Ligation Model (Chung Model)
Assay type: in vivo, Male Sprague Dawley rats
Settings: rat, i.p. dosing at 30 mg/kg
Excerpt: The spinal nerve ligation model of neuropathic pain was used to assess the effects of test compounds on nerve injury-induced tactile allodynia (S. H. Kim and J. M. Chung, Pain 50:355-363(1992)). Male Sprague Dawley rats (175-200 g) received unilateral tight ligation of the left L5/L6 spinal nerves distal to the dorsal root ganglion using 4-0 silk suture. Behavioral nociceptive testing occurred 7-14 days following spinal nerve ligation by placing the rats in chambers on a wire mesh. Rats were tested for tactile allodynia (decreased hindpaw withdrawal threshold to non-noxious punctate stimulation) by applying a series of calibrated von Frey filaments to the plantar aspect of the left hindpaw ipsilateral to the site of nerve injury. The mean 50% hindpaw withdrawal threshold (g.) was determined using the Dixon “up-own” non-parametric test (Chaplan et al., J. Neurosci. Methods, 53:55-63(1994)). […] Following determination of pre-drug withdrawal thresholds, rats received either an i.p. or p.o. injection of test compound. The effect of the test compound on tactile allodynia was determined over time by measuring hindpaw withdrawal thresholds 30, 60, 90, 120 min post-injection.

SMILES | effect on tactile allodynia (hindpaw withdrawal threshold) [%]
FC(F)(F)c1nnc2c3ccccc3c(OCc3cccc(CNCCc4ccccc4)n3)nn12 [Example 58, Phenethyl-[6-(3-trifluoromethyl-[1,2,4]triazolo[3,4,-a]phthalazin-6-yloxymethyl)-pyridin-2-ylmethyl]-amine] | 100
Cc1nnc2c3ccccc3c(OCc3cccc(CNCCc4ccccc4)n3)nn12 [Example 23] | 65
